# Measurements reported in patent publication US20100197495A1, “Synergistic Mixtures and/or Compositions With a High Fungicidal Activity” (priority 2005, published 2010).
# Tested on: Plasmopara viticola
# Assay: 7-day preventive activity on Plasmopara viticola on vines, preventive leaf application (greenhouse test)
# Assay type: in vivo
# Parameters: key to Activity (y): scale 100 = healthy plant to 0 = completely infected plant
# Description: Efficacy of the mixtures of one or more compounds belonging to the FOS and SIN groups of compounds in the control of Plasmopara viticola on vines in preventive leaf application (greenhouse test) (Table 1-Table 3) and of the compositions of said mixtures with a further fungicidal component (Table 4).
# Leaves of cultivar Merlot vines, grown in vases, in a conditioned environment (20±1° C., 70% relative humidity) are treated by spraying both sides of the leaves with the mixtures under examination dispersed in an aqueous solution containing a 0.3% of tween 20.
# After remaining 7 days in a conditioned environment, the plants are infected on the lower side with an aqueous suspension of spores of Plasmopara viticola (200,000 spores per cm^3).
# The plants are kept in a humidity saturated environment, at 21° C., for the incubation period of the fungus and, at the end of this period (7 days), the fungicidal activity is evaluated according to an evaluation percentage scale from 100 (healthy plant) to 0 (completely infected plant).
# When the fungicidal activity found experimentally is greater than the value of E, this activity is considered a synergistic effect.
# [1] = Table 4, alone, 125 ppm of equivalent phosphorous acid
# [2] = compound alone, 250 ppm of equivalent phosphorous acid, scale 100 (healthy plant) to 0 (completely infected plant)
# [3] = Table 4, alone, 32 ppm of equivalent metal copper
compound,measurement,setting,value
[C-]#N.[C-]#N.[C-]#N.[C-]#N.[C-]#N.[C-]#N.[C-]#N.[C-]#N.[C-]#N.[C-]#N.[C-]#N.[C-]#N.[C-]#N.[C-]#N.[C-]#N.[C-]#N.[C-]#N.[C-]#N.[Fe+2].[Fe+2].[Fe+2].[Fe+3].[Fe+3].[Fe+3].[Fe+3] [Prussian blue],Activity (y),"SIN compound alone, 250 ppm",32
same,% activity of each single compound,"Table 3, alone, 125 ppm",Prussian blue: 125 ppm (5) %
same,% activity of each single compound,"Table 4, alone, 125 ppm",Prussian blue: 125 ppm (5) %
"O=[PH]([O-])[O-].[Zn+2] [ZnHPO3, zinc salt of phosphorous acid]",% activity of each single compound,[1],ZnHPO3: 125 ppm** (18) %
same,Activity (y),[2],35
"[O]=[Zn] [ZnO, zinc oxide]",Activity (y),"SIN compound alone, 250 ppm",30
same,% activity of each single compound,"Table 3, alone, 125 ppm",ZnO: 125 ppm (14) %
same,% activity of each single compound,"Table 4, alone, 125 ppm",ZnO: 125 ppm (14) %
titanium dioxide [TiO2],Activity (y),"SIN compound alone, 250 ppm",13
same,% activity of each single compound,"Table 3, alone, 125 ppm",TiO2: 125 ppm (3) %
same,% activity of each single compound,"Table 4, alone, 125 ppm",TiO2: 125 ppm (3) %
"[Cu+2].c1ccc2c(c1)-c1nc-2nc2[n-]c(nc3nc(nc4[n-]c(n1)c1ccccc41)-c1ccccc1-3)c1ccccc21 [Cu(II) phthalocyanine, copper phthalocyanine]",Activity (y),"SIN compound alone, 32 ppm of equivalent metal",10
same,% activity of each single compound,[3],(8) %
silicic acid,Activity (y),"SIN compound alone, 14 ppm of equivalent metal",14
"O=c1ccc2cc(O[C@@H]3O[C@H](CO)[C@@H](O)[C@H](O)[C@H]3O)c(O)cc2o1 [Esculin, esculin]",Activity (y),"SIN compound alone, 25 ppm",10
"COC(=O)[C@@H](C)N(C(=O)Cc1ccccc1)c1c(C)cccc1C [IR6141, methyl N-(phenylacetyl)-N-2,6-xylyl-R-alaninate]",inhibition at 5 ppm,"Plasmopara viticola, Table 4, alone, 5 ppm, read-out: % activity of each single compound",45%
"COC(=O)CC(NC(=O)[C@@H](NC(=O)OC(C)C)C(C)C)c1ccc(Cl)cc1 (stereo partly drawn) [IR5885, methyl [S—(R,S)]-[3-(N-isopropoxycarbonylvalinyl)-amino]-3-(4-chlorophenyl)propanoate]",% activity of each single compound,"Table 4, alone, 0.45 ppm",IR5885: 0.45 ppm (41) %
O=C(O)c1ccccc1[O-].O=C(O)c1ccccc1[O-].[Cu+2] [Cu(SA)],% activity of each single compound,[3],Cu(SA): 32 ppm*** (42) %
"O=[PH]([O-])[O-].[Cu+2] [CuHPO3, copper (II) salt of phosphorous acid]",% activity of each single compound,"Table 3, alone, 250 ppm of equivalent phosphorous acid",CuHPO3: 250 ppm** (55) %
same,% activity of each single compound,[1],CuHPO3: 125 ppm** (32) %
same,Activity (y),[2],55
CC(=O)Oc1ccccc1C(=O)[O-].CC(=O)Oc1ccccc1C(=O)[O-].[Cu+2] [Cu(ASA)2],% activity of each single compound,[3],Cu(ASA)2: 32 ppm*** (45) %
